This note sets out measurements from patent publication EP4202440A1, “PROTEOMICS-BASED STRATIFICATION OF ACUTE MYELOID LEUKAEMIA” (Max-Planck-Gesellschaft zur Förderung der Wissenschaften …, priority 2021, dated 2023).

Assay [1] has as its system AML cell lines. Put plainly: Cell viability assay (MTT dye reduction), Mito-high versus Mito-low AML cell lines. The assay is classed as cell-based, Human. Conditions: 96 h incubation, Mito AML cell lines (n=9) vs non-Mito AML cell lines (n=10), Wilcoxon rank sum test, Figure 6D. The text has this:
Human AML cell lines including THP-1 (DSMZ no. ACC16; […]), OCI-AML2 (DSMZ No. ACC 99; FAB M4), OCI-AML3 (DSMZ No. ACC 582; FAB M4), Molm13 (DSMZ No. ACC 554; FAB […]), PL-21 (DSMZ No. ACC 536; FAB M3), HL-60 (DSMZ No. ACC 3; FAB M2), MV4-11 (DSMZ No. ACC 102; FAB M5), SIG-M5 (DSMZ No. ACC 468; FAB […]), ML2 (DSMZ No. ACC 15; FAB M4), NB4 (DSMZ No. ACC 207; FAB M3), KG1 (DSMZ No. ACC 14; FAB not indicated), KG-1a (DSMZ No. ACC 421; FAB not indicated), U-937 (DSMZ No. ACC 5, FAB not indicated), Kasumi-1 (DSMZ No. ACC 220, FAB M2), EOL-1 (DSMZ No. ACC 386, FAB not indicated), OCI-AML5 (DSMZ No. ACC 247, FAB M4), UT-7 (DSMZ No. ACC 137, FAB M7), SET-2 (DSMZ No. ACC 608, FAB no indicated), MonoMac6 (DSMZ No. ACC 124; FAB M5) and HEL (DSMZ No. ACC 11; FAB M6) were obtained from DSMZ (Deutsche Sammlung von Mikroorganismen und Zellkulturen GmbH). THP-1, OCI-AML2, OCI-AML3, Molm13, PL-21, HL-60, MV4-11, SIG-M5, ML2, NB4, KG1, KG-1a, U-937, EOL-1, SET-2, MonoMac6 and HEL were cultured in RPMI 1640 (ThermoFisher, Cat. No. 11875093), supplemented with 20% FBS, 4 mM L-glutamine, 100 IU/ml penicillin and […] streptomycin. Kasumi-1 and OCI-AML5 were cultured in Advanced RPMI (ThermoFisher, Cat. No. 12633012) supplemented with 5% FBS, 4 mM L-glutamine, 100 IU/ml penicillin and […] streptomycin. […] IC50 values were determined using the R package "drc" v3.0-1 (Ritz et al., 2015). […]

Assay [2] has as its system AML cell lines. Put plainly: Seahorse analysis: complex I dependency of respiration after rotenone, cell lines.
The subject of assay [3] is primary patient samples. Put plainly: Seahorse analysis: complex I dependency of respiration after rotenone, primary patient samples.

Consider `FC(F)(F)c1ccc(/C=C/c2nc(COc3ccc(CCCCn4ccnn4)cc3)co2)cc1` [mubritinib, Mubritinib], for which the “half-maximum inhibitory concentration (IC50): in vitro sensitivity of Mito-high and -low cell lines” value in assay [1] is “significant hypersensitivity”.
In the case of `C=C(C)[C@H]1Cc2c(ccc3c2O[C@@H]2COc4cc(OC)c(OC)cc4[C@@H]2C3=O)O1` [rotenone, Rotenone], the “Complex I dependency (percentage of basal oxygen consumption rate after inhibition with rotenone)” value in assay [2] and in assay [3] was “significantly stronger Complex I dependency” throughout.
